Two molecules from US20160310472A1, “PHARMACEUTICAL COMPOSITIONS COMPRISING SULBACTAM AND IMIPENEM” (priority 2013, published 2016) can be followed below.

In experiment [1] the test system is A. baumannii S-224 strain. Briefly: Time-kill study, viable bacterial count in broth, A. baumannii S-224. It counts as cell-based, Acinetobacter baumannii. On the procedure:
(§1) The antibacterial activity of compositions according to the invention against various bacterial strains was investigated. In a typical study, freshly grown cultures were diluted to required cell density (initial starting inoculum) in Brain Heart Infusion broth medium (BD, USA). The antibacterial agents (either alone or in combination) in required concentrations were added into the culture containing medium. The samples were incubated under shaking conditions (120 rpm) at 37° C. Enumeration of viable bacterial count was undertaken, every 2 hours, by diluting in normal saline and plating on to Tryptic Soya Agar plates (BD, USA). The plates were incubated for 24 hours to arrive at a viable bacterial count.
A. baumannii S-224 strain expresses both Class D beta-lactamases (OXA-51 and OXA-23 like) and Class B metalo-beta-lactamases (NDM).

Experiment [2] deals with A. baumannii S-12 strain. Kind of experiment: Time-kill study, viable bacterial count in broth, A. baumannii S-12. It counts as cell-based, Acinetobacter baumannii. As to the method:
as §1

Experiment [3] concerns A. baumannii S-5 strain. Briefly: Mouse Systemic Infection Model. The following applies: agent alone; Swiss albino mice, subcutaneous TID from 1 hour post infection, survival over 10 days.

Turning to `C[C@@H](O)[C@H]1C(=O)N2C(C(=O)O)=C(SCCN=CN)C[C@H]12` [Imipenem], the Bacterial count in experiment [1] (Imipenem 8 mcg/ml, 0 hour) is given as 6.74 log CFU/ml; in experiment [1] (Imipenem 8 mcg/ml, 2 hours), 7.20 log CFU/ml; in experiment [1] (Imipenem 8 mcg/ml, 4 hours), 8.11 log CFU/ml; in experiment [1] (Imipenem 8 mcg/ml, 6 hours), 8.04 log CFU/ml; in experiment [1] (Imipenem 16 mcg/ml, 0 hour), 6.74 log CFU/ml; in experiment [1] (Imipenem 16 mcg/ml, 2 hours), 7.17 log CFU/ml. Besides, the Bacterial count in experiment [1] (Imipenem 16 mcg/ml, 4 hours) is listed as 8.04 log CFU/ml; in experiment [1] (Imipenem 16 mcg/ml, 6 hours) it was 7.90 log CFU/ml; in experiment [2] (Imipenem 8 mcg/ml, 0 hour) it was 6.87 log CFU/ml; in experiment [2] (Imipenem 8 mcg/ml, 2 hours) it was 7.69 log CFU/ml; in experiment [2] (Imipenem 8 mcg/ml, 4 hours) it was 8.27 log CFU/ml; in experiment [2] (Imipenem 8 mcg/ml, 6 hours), 8.27 log CFU/ml. Also, the Bacterial count was 6.87 log CFU/ml in experiment [2] (Imipenem 16 mcg/ml, 0 hour); 7.69 log CFU/ml in experiment [2] (Imipenem 16 mcg/ml, 2 hours); 8.11 log CFU/ml in experiment [2] (Imipenem 16 mcg/ml, 4 hours); 7.84 log CFU/ml in experiment [2] (Imipenem 16 mcg/ml, 6 hours). The ED50 in experiment [3] is more than 50 mg/kg body weight. Further, the ED90 in experiment [3] was more than 50 mg/kg body weight.

As for `CC1(C)[C@H](C(=O)O)N2C(=O)C[C@H]2S1(=O)=O` [Sulbactam], the Bacterial count turned out to be 6.74 log CFU/ml in experiment [1] (Sulbactam 16 mcg/ml, 0 hour); 6.65 log CFU/ml in experiment [1] (Sulbactam 16 mcg/ml, 2 hours); 7.17 log CFU/ml in experiment [1] (Sulbactam 16 mcg/ml, 4 hours); 7.27 log CFU/ml in experiment [1] (Sulbactam 16 mcg/ml, 6 hours); 6.87 log CFU/ml in experiment [2] (Sulbactam 16 mcg/ml, 0 hour); 5.84 log CFU/ml in experiment [2] (Sulbactam 16 mcg/ml, 2 hours). Moreover, the Bacterial count in experiment [2] (Sulbactam 16 mcg/ml, 4 hours) is recorded as 5.27 log CFU/ml; in experiment [2] (Sulbactam 16 mcg/ml, 6 hours), 6.23 log CFU/ml. Besides, the “Decrease in number of colony forming units (in words)” value in experiment [2] (S-12 strain) is given as “not observed”.
